From patent US20230000870A1, “METHODS OF TREATING CANCER IN BIOMARKER-IDENTIFIED PATIENTS WITH INHIBITORS OF CYCLIN-DEPENDENT KINASE 7 (CDK7)” (Syros Pharmaceuticals, Inc., priority 2019, published 2023)

Tests used:
CDK2/Cyclin E1 complex = CDK2/Cyclin E1 complex (Homo sapiens, UniProt P24941); test: CDK2 kinase inhibition assay (Caliper/LabChip EZ Reader); format: biochemical; conditions: CDK2/Cyclin E1 0.5 nM, ATP 2 mM, 35 min at 27° C.
Procedure, shortened: (§1)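 Caliper/LabChip mobility-shift kinase assays at 27° C. CDK9/Cyclin T1 8 nM with 2 μM 5-FAM-CDK9tide, 10 mM MgCl2, 15 min; CDK12/Cyclin K 50 nM with 5-FAM-CDK9tide 2 μM, 2 mM MgCl2, 3 hr; CDK2/Cyclin E1 0.5 nM with 5-FAM-CDK7tide 2 μM, 2 mM MgCl2, 35 min; CDK7 35 min.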

[1] = biological target: T1, CDK12 (aa686-1082)/Cyclin K complex (Homo sapiens, UniProt Q9NYV4); test: CDK12 kinase inhibition assay (Caliper/LabChip EZ Reader); format: biochemical; conditions: CDK12 (aa686-1082)/Cyclin K 50 nM, ATP 2 mM, 3 hr at 27° C.
T1 construct: CDK12 (aa686-1082)/Cyclin K complex
Procedure, shortened: as §1

CDK9/Cyclin T1 complex = CDK9/Cyclin T1 complex (Homo sapiens, UniProt P50750); test: CDK9 kinase inhibition assay (Caliper/LabChip EZ Reader); format: biochemical; conditions: CDK9/Cyclin T1 8 nM, ATP 2 mM, 15 min at 27° C.
Procedure, shortened: as §1

[2] = biological target: CDK7/Cyclin H/MAT1 complex (Homo sapiens, UniProt P50613); test: CDK7 kinase inhibition assay (Caliper/LabChip EZ Reader); format: biochemical; conditions: CDK7/Cyclin H/MAT1 6 nM, ATP 2 mM, 35 min at 27° C.
Procedure, shortened: as §1

A673 cells = test: Inhibition of proliferation of A673 cells (CyQUANT, 72 hour); format: cell-based, human; conditions: read-out: Inhibition of Proliferation of A673 Cells (calculated IC50)
Procedure, shortened: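 Human Ewing's sarcoma A673 cells in DMEM + 10% FBS + 1 mM sodium pyruvate, 37 °C, 5% CO2. Compounds in 0.5-log serial dilutions, stated range 4 μM to […], for 72 h. Anti-proliferative effect read with CyQUANT per kit directions.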

HCC70 cells = test: Inhibition of proliferation of HCC70 cells (CyQUANT Direct, 72 hour); format: cell-based, human; conditions: read-out: Inhibition of Proliferation of HCC70 Cells (calculated IC50)
Procedure: HCC70 cells: HCC70 cells are a cell line derived from human triple negative breast cancer. Representative compounds of the invention were tested at different concentrations (from 4 μM to […]; 0.5 log serial dilutions) for their ability to inhibit the proliferation of HCC70 cells. Known CDK inhibitors dinaciclib or N-((1S,3R)-3-((5-chloro-4-(1H-indol-3-yl) pyrimidin-2-yl)amino)cyclohexyl)-5-((E)-4-(dimethylamino)but-2-enamido)picolinamide and triptolide were used as positive controls. Cells were grown in ATCC-formulated RPMI-1640 Medium (ATCC 30-2001)+10% FBS. The cells were cultured at 37° C. in a humidified chamber in the presence of 5% CO2. Proliferation assays were conducted over a 72 hour time period. CyQUANT® Direct Cell Proliferation Assay (Life Technologies, Chicago, Ill. USA) was used to assess the anti-proliferative effects of the compounds following manufacturer's directions and utilizing the reagents supplied with the CyQUANT® Direct Cell kit.

Chain of CDK9/Cyclin T1 complex (P50750 whole entry): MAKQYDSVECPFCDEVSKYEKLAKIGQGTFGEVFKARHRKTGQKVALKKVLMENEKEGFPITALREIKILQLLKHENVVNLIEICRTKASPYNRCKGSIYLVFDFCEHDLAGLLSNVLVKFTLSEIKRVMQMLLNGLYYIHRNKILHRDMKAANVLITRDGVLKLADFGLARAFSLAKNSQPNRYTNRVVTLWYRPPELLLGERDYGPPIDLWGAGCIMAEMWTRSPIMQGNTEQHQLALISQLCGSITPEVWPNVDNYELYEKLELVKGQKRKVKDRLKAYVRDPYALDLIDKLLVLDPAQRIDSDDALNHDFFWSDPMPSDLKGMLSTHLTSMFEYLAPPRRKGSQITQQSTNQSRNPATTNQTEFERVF
Chain of CDK9/Cyclin T1 complex (O60563 whole entry partner): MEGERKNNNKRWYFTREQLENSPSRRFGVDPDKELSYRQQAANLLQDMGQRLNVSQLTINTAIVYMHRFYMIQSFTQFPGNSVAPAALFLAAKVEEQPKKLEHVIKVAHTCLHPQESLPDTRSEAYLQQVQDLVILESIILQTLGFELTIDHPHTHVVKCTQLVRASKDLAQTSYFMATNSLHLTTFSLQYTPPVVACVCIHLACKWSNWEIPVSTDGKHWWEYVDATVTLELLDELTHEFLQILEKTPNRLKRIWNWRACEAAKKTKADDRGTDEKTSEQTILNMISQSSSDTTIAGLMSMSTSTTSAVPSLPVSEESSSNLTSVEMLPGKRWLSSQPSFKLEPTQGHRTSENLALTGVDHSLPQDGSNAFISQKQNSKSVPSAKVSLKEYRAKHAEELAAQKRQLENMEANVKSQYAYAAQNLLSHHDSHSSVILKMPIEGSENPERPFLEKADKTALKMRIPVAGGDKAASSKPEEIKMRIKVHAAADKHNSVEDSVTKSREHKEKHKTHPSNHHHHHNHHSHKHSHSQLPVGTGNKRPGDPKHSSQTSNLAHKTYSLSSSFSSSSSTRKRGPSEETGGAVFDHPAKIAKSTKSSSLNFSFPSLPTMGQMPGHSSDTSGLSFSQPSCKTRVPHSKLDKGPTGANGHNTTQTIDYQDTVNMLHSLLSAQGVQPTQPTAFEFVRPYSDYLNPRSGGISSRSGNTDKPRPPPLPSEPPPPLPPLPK
Chain of CDK7/Cyclin H/MAT1 complex (P50613 whole entry): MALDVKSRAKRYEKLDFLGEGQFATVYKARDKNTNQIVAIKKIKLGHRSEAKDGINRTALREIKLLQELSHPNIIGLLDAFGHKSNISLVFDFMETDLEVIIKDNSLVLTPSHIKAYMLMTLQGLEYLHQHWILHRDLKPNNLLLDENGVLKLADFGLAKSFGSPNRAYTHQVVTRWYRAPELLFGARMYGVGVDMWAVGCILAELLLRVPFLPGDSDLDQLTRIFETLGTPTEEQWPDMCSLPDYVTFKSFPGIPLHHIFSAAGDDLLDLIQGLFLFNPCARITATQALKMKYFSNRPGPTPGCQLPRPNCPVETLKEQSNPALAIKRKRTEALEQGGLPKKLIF
Chain of CDK7/Cyclin H/MAT1 complex (P51946 whole entry partner): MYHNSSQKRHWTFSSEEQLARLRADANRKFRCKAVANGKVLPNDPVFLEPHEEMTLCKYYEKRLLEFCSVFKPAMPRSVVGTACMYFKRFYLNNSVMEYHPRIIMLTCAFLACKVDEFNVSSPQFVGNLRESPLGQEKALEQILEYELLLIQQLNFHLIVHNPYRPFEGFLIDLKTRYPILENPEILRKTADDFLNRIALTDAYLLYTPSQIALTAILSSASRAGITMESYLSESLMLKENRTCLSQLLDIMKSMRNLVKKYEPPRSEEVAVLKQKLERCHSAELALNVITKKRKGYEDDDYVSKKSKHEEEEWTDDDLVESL
Chain of CDK7/Cyclin H/MAT1 complex (P51948 whole entry partner): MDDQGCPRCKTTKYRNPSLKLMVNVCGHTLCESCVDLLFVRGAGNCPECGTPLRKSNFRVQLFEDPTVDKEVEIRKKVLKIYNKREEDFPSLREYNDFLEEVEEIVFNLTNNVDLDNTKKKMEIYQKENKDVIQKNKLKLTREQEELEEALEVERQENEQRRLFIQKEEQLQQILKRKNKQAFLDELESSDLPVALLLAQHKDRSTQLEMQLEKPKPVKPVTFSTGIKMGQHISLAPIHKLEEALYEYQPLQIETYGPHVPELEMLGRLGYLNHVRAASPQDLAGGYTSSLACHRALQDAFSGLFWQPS
T1 sequence (Q9NYV4 686-1082): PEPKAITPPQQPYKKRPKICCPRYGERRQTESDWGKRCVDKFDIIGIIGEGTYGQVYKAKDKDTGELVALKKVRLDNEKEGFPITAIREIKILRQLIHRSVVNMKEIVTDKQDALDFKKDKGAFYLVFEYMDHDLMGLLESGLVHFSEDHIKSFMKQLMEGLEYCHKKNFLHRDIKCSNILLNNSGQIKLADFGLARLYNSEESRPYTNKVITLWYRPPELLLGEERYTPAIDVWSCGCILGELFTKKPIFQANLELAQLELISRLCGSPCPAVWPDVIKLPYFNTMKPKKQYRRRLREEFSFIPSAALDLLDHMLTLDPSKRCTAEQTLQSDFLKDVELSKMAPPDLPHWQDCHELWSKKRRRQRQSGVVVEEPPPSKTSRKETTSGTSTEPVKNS
T1 sequence (O75909 whole entry partner, the tested form may be a part): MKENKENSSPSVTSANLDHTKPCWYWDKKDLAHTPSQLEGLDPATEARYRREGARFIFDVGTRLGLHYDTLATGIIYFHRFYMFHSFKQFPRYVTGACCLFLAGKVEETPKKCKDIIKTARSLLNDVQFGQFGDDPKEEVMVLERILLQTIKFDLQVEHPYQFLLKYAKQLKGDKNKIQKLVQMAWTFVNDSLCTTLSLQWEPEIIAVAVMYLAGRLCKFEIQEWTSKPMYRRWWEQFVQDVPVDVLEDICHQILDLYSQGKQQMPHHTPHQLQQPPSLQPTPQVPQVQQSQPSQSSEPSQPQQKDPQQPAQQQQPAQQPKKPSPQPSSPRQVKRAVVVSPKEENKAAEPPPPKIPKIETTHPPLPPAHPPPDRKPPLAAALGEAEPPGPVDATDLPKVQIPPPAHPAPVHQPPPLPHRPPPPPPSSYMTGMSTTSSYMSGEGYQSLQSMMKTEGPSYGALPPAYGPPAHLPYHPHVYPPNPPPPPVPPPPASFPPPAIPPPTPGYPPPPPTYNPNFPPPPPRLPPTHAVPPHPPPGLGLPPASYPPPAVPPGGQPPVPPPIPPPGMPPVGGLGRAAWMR

SMILES	IC50 (CDK2/Cyclin E1 complex)	IC50 [1]	IC50 (CDK9/Cyclin T1 complex)	IC50 [2]	IC50 (A673 cells)	IC50 (HCC70 cells)
FC(F)(F)c1cnc(NC2CCCNC2)nc1-c1c[nH]c2cc(-c3cccnc3)ccc12 (stereo not shown) [Compound 223]	0.2 to 5 µM	0.2 to 5 µM	0.2 to 5 µM	< 20 nM	20 to 200 nM	
FC(F)(F)c1cnc(N[C@H]2CCCNC2)nc1-c1c[nH]c2cc(-c3ccncc3)ccc12 [Compound 224]	0.2 to 5 µM	0.2 to 5 µM	0.2 to 5 µM	< 20 nM	20 to 200 nM	
Cn1cc(-c2ccc3c(-c4nc(NC5CCCNC5)ncc4C(F)(F)F)c[nH]c3c2)cc1C#N (stereo not shown) [Compound 225]	0.2 to 5 µM	0.2 to 5 µM	0.2 to 5 µM	< 20 nM	20 to 200 nM	
Cc1nn(C)cc1-c1ccc2c(-c3nc(N[C@H]4CCCNC4)ncc3C(F)(F)F)c[nH]c2c1 [Compound 226]	0.2 to 5 µM	0.2 to 5 µM	0.2 to 5 µM	< 20 nM	< 20 nM	
Cc1c(-c2ccc3c(-c4nc(NC5CCCNC5)ncc4C(F)(F)F)c[nH]c3c2)cnn1C (stereo not shown) [Compound 227]	0.2 to 5 µM	0.2 to 5 µM	0.2 to 5 µM	< 20 nM	20 to 200 nM	
O=C(C1CCC(Nc2ncc(C(F)(F)F)c(-c3c[nH]c4ccccc34)n2)CN1)N1CCCC1 (stereo not shown) [Compound 228]	0.2 to 5 µM	0.2 to 5 µM	0.2 to 5 µM	< 20 nM	20 to 200 nM	
Cc1n[nH]cc1-c1ccc2[nH]cc(-c3nc(NC4CCCNC4)ncc3C(F)(F)F)c2c1 (stereo not shown) [Compound 229]	0.2 to 5 µM	0.2 to 5 µM	0.2 to 5 µM	< 20 nM	< 20 nM	
FC(F)(F)c1cnc(N[C@H]2CCCNC2)nc1-c1c[nH]c2ccc(-c3ccnnc3)cc12 [Compound 230]	0.2 to 5 µM	0.2 to 5 µM	0.2 to 5 µM	< 20 nM	20 to 200 nM	
CCc1cnc(NC2CCCNC2)nc1-c1c[nH]c2ncc(F)cc12 (stereo not shown) [Compound 231]	≥ 5 µM	≥ 5 µM	≥ 5 µM	≥ 5000 nM	200 to 5000 nM	
N#Cc1cc(-c2ccc3c(-c4nc(NC5CCCNC5)ncc4C(F)(F)F)c[nH]c3c2)c[nH]1 (stereo not shown) [Compound 233]	0.2 to 5 µM	0.2 to 5 µM	0.2 to 5 µM	< 20 nM	20 to 200 nM	
CC(O)c1cnc(NC2CCCNC2)nc1-c1c[nH]c2ccccc12 (stereo not shown) [Compound 234]	≥ 5 µM	≥ 5 µM	≥ 5 µM	200 to 5000 nM	< 20 nM	
Cc1nc(-c2ccc3c(-c4nc(NC5CCCNC5)ncc4C(F)(F)F)c[nH]c3c2)n[nH]1 (stereo not shown) [Compound 235]	0.2 to 5 µM	0.2 to 5 µM	0.2 to 5 µM	< 20 nM	200 to 5000 nM	
FC1(F)CNC[C@@H](Nc2ncc(C(F)(F)F)c(-c3c[nH]c4ccccc34)n2)C1 [Compound 236]	0.2 to 5 µM	0.2 to 5 µM	0.2 to 5 µM	< 20 nM	20 to 200 nM	
CC(O)c1cnc(NC2CCCNC2)nc1-c1c[nH]c2ccccc12 (stereo not shown) [Compound 238]	≥ 5 µM	≥ 5 µM	≥ 5 µM	200 to 5000 nM	200 to 5000 nM	
CC(O)c1cnc(NC2CCCNC2)nc1-c1c[nH]c2ccccc12 (stereo not shown) [Compound 239]	≥ 5 µM	≥ 5 µM	≥ 5 µM	200 to 5000 nM	200 to 5000 nM	
CCCCCc1ccc2c(-c3nc(N[C@@H]4CCCNC4)ncc3C(F)(F)F)c[nH]c2c1 [Compound 241]	0.2 to 5 µM	0.2 to 5 µM	0.2 to 5 µM	20 to 200 nM	20 to 200 nM	
CC(C)(O)CCc1ccc2c(-c3nc(NC4CCCNC4)ncc3C(F)(F)F)c[nH]c2c1 (stereo not shown) [Compound 242]	≥ 5 µM	0.2 to 5 µM	0.2 to 5 µM	20 to 200 nM	20 to 200 nM	
CC1(C)CNC[C@@H](Nc2ncc(C(F)(F)F)c(-c3c[nH]c4ccccc34)n2)C1 [Compound 243]	0.2 to 5 µM	0.02 to 0.2 µM	0.2 to 5 µM	< 20 nM	< 20 nM	
Cc1nc(-c2ccc3c(-c4nc(NC5CCCNC5)ncc4C(F)(F)F)c[nH]c3c2)nn1C (stereo not shown) [Compound 245]	0.2 to 5 µM	0.2 to 5 µM	≥ 5 µM	< 20 nM	20 to 200 nM	

SMILES	IC50 (CDK2/Cyclin E1 complex)	IC50 [1]	IC50 (CDK9/Cyclin T1 complex)	IC50 [2]	IC50 (A673 cells)	IC50 (HCC70 cells)
CC(O)c1cnc(NC2CCCNC2)nc1-c1c[nH]c2ccccc12 (stereo not shown) [Compound 247]	≥ 5 µM	≥ 5 µM	≥ 5 µM	200 to 5000 nM	200 to 5000 nM	
N#Cc1cn(-c2ccc3c(-c4nc(NC5CCCNC5)ncc4C(F)(F)F)c[nH]c3c2)cn1 (stereo not shown) [Compound 249]	≥ 5 µM	0.2 to 5 µM	≥ 5 µM	< 20 nM	20 to 200 nM	
CNC(=O)C1CNCC(Nc2ncc(C(F)(F)F)c(-c3c[nH]c4ccccc34)n2)C1 (stereo not shown) [Compound 252]	0.2 to 5 µM	≥ 5 µM	≥ 5 µM	20 to 200 nM	200 to 5000 nM	
CNC(=O)C1CNCC(Nc2ncc(C(F)(F)F)c(-c3c[nH]c4ccccc34)n2)C1 (stereo not shown) [Compound 253]	0.02 to 0.2 µM	0.02 to 0.2 µM	0.2 to 5 µM	< 20 nM	20 to 200 nM	
CNC(=O)C1CNCC(Nc2ncc(C(F)(F)F)c(-c3c[nH]c4ccccc34)n2)C1 (stereo not shown) [Compound 256]	0.2 to 5 µM	0.2 to 5 µM	≥ 5 µM	20 to 200 nM	200 to 5000 nM	
CC(C)C1CC[C@H](Nc2ncc(C(F)(F)F)c(-c3c[nH]c4ccccc34)n2)CN1 (stereo partly shown) [Compound 257]	≥ 5 µM	≥ 5 µM	≥ 5 µM	20 to 200 nM	200 to 5000 nM	
N#Cc1ccc2c(-c3nc(NC4CCCNC4)ncc3C(F)(F)F)c[nH]c2c1C#N (stereo not shown) [Compound 258]	0.2 to 5 µM	0.2 to 5 µM	0.2 to 5 µM	< 20 nM	20 to 200 nM	
CCC(=O)NC1CNCC(Nc2ncc(C(F)(F)F)c(-c3c[nH]c4c(S(C)(=O)=O)cccc34)n2)C1 (stereo not shown) [Compound 259]	0.2 to 5 µM	0.2 to 5 µM	0.2 to 5 µM	< 20 nM	20 to 200 nM	
CC(C)C1CCC(Nc2ncc(C(F)(F)F)c(-c3c[nH]c4ccccc34)n2)CN1 (stereo not shown) [Compound 260]	≥ 5 µM	0.2 to 5 µM	≥ 5 µM	200 to 5000 nM	200 to 5000 nM	
CCc1cnc(NC2CCCNC2)nc1-c1n[nH]c2ncccc12 (stereo not shown) [Compound 262]	0.2 to 5 µM	0.2 to 5 µM	0.2 to 5 µM	< 20 nM	20 to 200 nM	
CS(=O)(=O)c1cccn2c(C3CNCC(Nc4ncc(C(F)(F)F)c(-c5c[nH]c6ccccc56)n4)C3)nnc12 (stereo not shown) [Compound 265]	0.2 to 5 µM	0.2 to 5 µM	0.2 to 5 µM	200 to 5000 nM	20 to 200 nM	
FC(F)(F)c1cnc(NC2CNCC(c3nnc4ccccn34)C2)nc1-c1c[nH]c2ccccc12 (stereo not shown) [Compound 266]	0.2 to 5 µM	0.2 to 5 µM	0.2 to 5 µM	20 to 200 nM	20 to 200 nM	
CCc1cnc(NC2CCCNC2)nc1-c1c[nH]c2c(S(C)(=O)=O)cccc12 (stereo not shown) [Compound 269]						100 to 1000 nM
CCS(=O)(=O)c1ccc2c(-c3nc(NC4CCCNC4)ncc3C(F)(F)F)c[nH]c2c1 (stereo not shown) [Compound 274]	0.2 to 5 µM	0.2 to 5 µM	0.2 to 5 µM	< 20 nM	20 to 200 nM	
CCc1cnc(NC2CCCNC2)nc1-c1n[nH]c2cc(C#N)ccc12 (stereo not shown) [Compound 275]	0.2 to 5 µM	0.2 to 5 µM	0.2 to 5 µM	< 20 nM	20 to 200 nM	
CC(C)c1cnc(N[C@H]2CCCNC2)nc1-c1n[nH]c2nc(C#N)ccc12 [Compound 276]	≥ 5 µM	≥ 5 µM	≥ 5 µM	20 to 200 nM	200 to 5000 nM	
Nc1nc2c(-c3ccc4c(-c5nc(NC6CCCNC6)ncc5C(F)(F)F)c[nH]c4c3)cccc2s1 (stereo not shown) [Compound 312]		0.2 to 5 µM		20 to 200 nM		100 to 1000 nM
Fc1cncc(-c2ccc3c(-c4nc(NC5CCCNC5)ncc4C(F)(F)F)c[nH]c3c2)c1 (stereo not shown) [Compound 335]						100 to 1000 nM
